Structures can show the parent of a compound that is named as a salt. Where two headings read alike, the source gives them in different places.
Tested on: MV4-11
Assay: Combined use under low protein content, MTT assay after 48 hours
Assay type: cell-based, human
Conditions: MV4-11, low protein content

IC50 (Homo sapiens, read-out: IC50 value of DFP-10917 alone) [nM]	IC50 (read-out: IC50 value of venetoclax alone) [nM]	Compound
1530		N#C[C@H]1[C@H](O)[C@@H](CO)O[C@H]1n1ccc(N)nc1=O [DFP-10917, 4-amino-1-(2-cyano-2-deoxy-β-D-arabinofuranosyl)-2(1H)-pyrimidinone monohydrochloride]
	0.0968	venetoclax

Reference: patent US11957701B2, “Therapy and new therapeutic agent for blood cancer” (Delta-Fly Pharma, Inc., priority 2020, dated 2024)
